Measured values: patent EP4206196A1, “PYRIMIDINE SUBSTITUTED DERIVATIVES AS TYK2 INHIBITORS” (Almirall S.A., priority 2021, dated 2023)
pIC50, pKd: −log10 of the molar value. Like-named read-outs stand apart in the source and are kept apart here.

Assays:
[1] = biological target: T1, TYK2 (JH2domain-pseudokinase) (Homo sapiens, UniProt P29597); assay: TYK2 JH2 domain binding assay (KINOMEscan)
T1 construct: TYK2 (JH2domain-pseudokinase)-tagged T7 phage strains were prepared in an E. coli host derived from the BL21 strain; made in house; host or cells: E. coli BL21-derived host (T7 phage) or HEK-293 cells
Description: TYK2 (JH2domain-pseudokinase) KINOMEscan assay. For the assay, TYK2 (JH2domain-pseudokinase)-tagged T7 phage strains were prepared in an E. coli host derived from the BL21 strain.E. coli were grown to log-phase and infected with T7 phage and incubated with shaking at 32°C until lysis. The lysates were centrifuged and filtered to remove cell debris. The remaining TYK2 (JH2domain-pseudokinase) were produced in HEK-293 cells and subsequently tagged with DNA for qPCR detection. Streptavidin-coated magnetic beads were treated with biotinylated small molecule ligands for 30 minutes at room temperature to generate affinity resins for kinase assays. The liganded beads were blocked with excess biotin and washed with blocking buffer (SeaBlock (Pierce), 1% BSA, 0.05% Tween 20, 1 mM DTT) to remove unbound ligand and to reduce non-specific binding. Binding reactions were assembled by combining TYK2 (JH2domain-pseudokinase), liganded affinity beads, and test compounds in 1x binding buffer (20% SeaBlock, 0.17x PBS, 0.05% Tween 20, 6 mM DTT). Test compounds were prepared as 111X stocks in 100% DMSO. Kds were determined using an 11-point 3-fold compound dilution series with three DMSO control points. All compounds for Kd measurements are distributed by acoustic transfer (non-contact dispensing) in 100% DMSO. The compounds were then diluted directly into the assays such that the final concentration of DMSO was 0.9%. All reactions performed in polypropylene 384-well plate. Each was a final volume of 0.02 ml. The assay plates were incubated at room temperature with shaking for 1 hour and the affinity beads were washed with wash buffer (1x PBS, 0.05% Tween 20). The beads were then re-suspended in elution buffer (1x PBS, 0.05% Tween 20, 0.5 µM non-biotinylated affinity ligand) and incubated at room temperature with shaking for 30 minutes. The kinase concentration in the eluates was measured by qPCR. […]
An 11-point 3-fold serial dilution of each test compound was prepared in 100% DMSO at 100x final test concentration and subsequently diluted to 1x in the assay (final DMSO concentration = 1%). Most Kds were determined using a compound top concentration = 30,000 nM. If the initial Kd determined was < 0.5 nM (the lowest concentration tested), the measurement was repeated with a serial dilution starting at a lower top concentration.
Curves were fitted using a non-linear least square fit with the Levenberg-Marquardt algorithm. […] TABLE 1: Kd Affinities for Tyk2 JH2 Domain Binding Assay.

[2] = system: STAT1/3 through TYK2/JAK1; assay: IFNa induced STAT phosphorylation in HEK293 cells (SIE-bla reporter gene); type: cell-based; conditions: HEK293T-sie-bla cells, IFNa at EC80, 4 hours, read-out: Inhibition of IFNa induced STAT phosphorylation HEK293 cells IC50
Description: Stimulation of HEK293T-sie-bla cells with interferon alpha (INFa) activates the signaling pathway of STAT1/3 through TYK2/JAK1. In this assay, measurement of the activity of the reporter gene […]-lactamase expression was used as the readout.
CellSensorTM SIE-bla HEK293T cell line were purchased from Thermo Fisher Scientific (ref. #K1649B) and cultured as specified by the provider. A number of 30.000 cells per well (40 µl) were plated in a 384-well plate (Corning ref.# 3712) and cultured overnight at 37°C with 5% CO2 in a complete Optimem media (ThermoFisher ref. #11058-021) containing 0.5% (v/v) heat inactivated dialyzed FBS (Life Technologies ref. #26400044), 10 µM non-essential aminoacids NEAA (Sigma ref. #M7145), 100 µM Sodium Pyruvate (Gibco ref. #11360-039) and 100 U/mL Penicillin (Sigma ref. #P0781). Compounds were initially dissolved in 100% DMSO. Compound curves were then prepared using a 1/5 serial dilution (10 dilutions). The dilutions were directly diluted in complete Optimem media at 40-fold their final concentration in 20% DMSO. IFNa initial solution (R&D systems ref. #11100-1) was prepared at 10-fold its EC80 in complete Optimem media. Compounds and IFNa were added simultaneously to the wells with cells and incubated during 4 hours at 37°C (the final DMSO was 0.1%). The […]-lactamase substrate (LifeTechnologies ref.#K1138) was prepared at 6-fold its final concentration as specified by the provider. Then 10 µL of the mixture was added to the wells to stop the stimulation. Plate was left in the dark over-night. Then a FRET reading was performed on an appropriate plate reader.
All experiments were analysed using an ExcelFit template and the four-parameter log equation. […] TABLE 2: IC50 Inhibitions of IFNa induced STAT phosphorylation in HEK293 cells

T1 sequence (P29597 589-875 limits assumed): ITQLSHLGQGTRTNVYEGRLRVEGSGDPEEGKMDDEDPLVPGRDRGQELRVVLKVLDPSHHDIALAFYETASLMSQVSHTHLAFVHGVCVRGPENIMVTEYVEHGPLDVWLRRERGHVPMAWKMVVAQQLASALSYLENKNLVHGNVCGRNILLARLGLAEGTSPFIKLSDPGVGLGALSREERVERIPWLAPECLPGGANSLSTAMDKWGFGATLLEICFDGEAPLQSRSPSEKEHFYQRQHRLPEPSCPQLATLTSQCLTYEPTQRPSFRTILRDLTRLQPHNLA

Compound | pKd [1] | pIC50 ([2]; Homo sapiens, HEK293) | pIC50 [2]
COc1cc(C2CCOC2)ccc1Nc1cc(Nc2cc(C)nc(C)n2)ncn1 (stereo not drawn) [Example 117, N4-(2,6-dimethylpyrimidin-4-yl)-N6-(2-methoxy-4-tetrahydrofuran-3-yl-phenyl)pyrimidine-4,6-diamine] | 8.00 to 9.00 | < 6.00 | –
COc1c(Nc2cc(Nc3cc(C)nc(C)n3)ncn2)cccc1-c1nc(C)nn1C1COC1 [Example 48, N4-(2,6-dimethylpyrimidin-4-yl)-N6-[2-methoxy-3-[5-methyl-2-(oxetan-3-yl)-1,2,4-triazol-3-yl]phenyl]pyrimidine-4,6-diamine] | < 8.00 | < 6.00 | –
Cc1cc(Nc2cc(Nc3ccc(C4CCCCO4)cc3N(C)S(C)(=O)=O)ncn2)nc(C)n1 (stereo not drawn) [Example 107, N-[2-[[6-[(2,6-dimethylpyrimidin-4-yl)amino]pyrimidin-4-yl]amino]-5-tetrahydropyran-2-yl-phenyl]-N-methyl-methanesulfonamide] | > 9.70 | > 8.00 | –
COCCn1cnc(-c2cccc(Nc3cc(Nc4cc(C)nc(C)n4)ncn3)c2OC)n1 [Example 44, N6-(2,6-dimethylpyrimidin-4-yl)-N4-[2-methoxy-3-[1-(2-methoxyethyl)-1,2,4-triazol-3-yl]phenyl]pyrimidine-4,6-diamine] | 9.00 to 9.70 | 7.00 to 8.00 | –
Cc1cc(Nc2cc(Nc3ccc(Cc4ccccc4)cc3N(C)S(C)(=O)=O)ncn2)nc(C)n1 [Example 109, N-[5-benzyl-2-[[6-[(2,6-dimethylpyrimidin-4-yl)amino]pyrimidin-4-yl]amino]phenyl]-N-methyl-methanesulfonamide] | > 9.70 | > 8.00 | –
Cc1cc(Nc2cc(Nc3ccccc3S(=O)(=O)N3CCCCC3)ncn2)nc(C)n1 [Example 73, N6-(2,6-dimethylpyrimidin-4-yl)-N4-[2-(1-piperidylsulfonyl)phenyl]pyrimidine-4,6-diamine] | < 8.00 | < 6.00 | –
Cc1cc(Nc2cc(Nc3ncc(-c4nc(C)n(C)n4)cc3N(C)S(C)(=O)=O)ncn2)ncn1 [Example 154, N-[5-(1,5-dimethyl-1,2,4-triazol-3-yl)-2-[[6-[(6-methylpyrimidin-4-yl)amino]pyrimidin-4-yl]amino]-3-pyridyl]-N-methyl-methanesulfonamide] | > 9.70 | 7.00 to 8.00 | –
C=Cc1ccc(Nc2cc(Nc3cc(C)nc(C)n3)ncn2)c(N(C)S(C)(=O)=O)c1 [Example 108, N-[2-[[6-[(2,6-dimethylpyrimidin-4-yl)amino]pyrimidin-4-yl]amino]-5-vinyl-phenyl]-N-methyl-methanesulfonamide] | > 9.70 | > 8.00 | –
COc1c(Nc2cc(Nc3cc(C)nc(C)n3)ncn2)cccc1-c1ncc(F)cn1 [Example 31, N4-(2,6-dimethylpyrimidin-4-yl)-N6-[3-(5-fluoropyrimidin-2-yl)-2-methoxy-phenyl]pyrimidine-4,6-diamine] | 9.00 to 9.70 | 6.00 to 7.00 | –
Cc1cc(Nc2cc(Nc3ncc(-c4c(C)nn(C)c4C)cc3N(C)S(C)(=O)=O)ncn2)nc(C)n1 [Example 88, N-[2-[[6-[(2,6-dimethylpyrimidin-4-yl)amino]pyrimidin-4-yl]amino]-5-(1,3,5-trimethylpyrazol-4-yl)-3-pyridyl]-N-methyl-methanesulfonamide] | > 9.70 | 7.00 to 8.00 | –
Cc1cc(Nc2cc(Nc3ccc(-c4cncn4C)cc3N(C)S(C)(=O)=O)ncn2)nc(C)n1 [Example 24, N-[2-[[6-[(2,6-dimethylpyrimidin-4-yl)amino]pyrimidin-4-yl]amino]-5-(3-methylimidazol-4-yl)phenyl]-N-methyl-methanesulfonamide] | > 9.70 | 7.00 to 8.00 | –
COc1c(Nc2cc(Nc3cc(C)nc(C)n3)ncn2)cccc1-c1nc(C(F)(F)F)n(C)n1 [Example 29, N6-(2,6-dimethylpyrimidin-4-yl)-N4-[2-methoxy-3-[1-methyl-5-(trifluoromethyl)-1,2,4-triazol-3-yl]phenyl]pyrimidine-4,6-diamine] | 8.00 to 9.00 | < 6.00 | –
Cc1cc(Nc2cc(Nc3ncc(-c4nnc(C)n4C)cc3N(C)S(C)(=O)=O)ncn2)nc(C)n1 [Example 134, N-[2-[[6-[(2,6-dimethylpyrimidin-4-yl)amino]pyrimidin-4-yl]amino]-5-(4,5-dimethyl-1,2,4-triazol-3-yl)-3-pyridyl]-N-methyl-methanesulfonamide] | 9.00 to 9.70 | < 6.00 | –
COc1c(Nc2cc(Nc3cc(C)nc(C)n3)ncn2)cccc1C(F)(F)F [Example 18, N6-(2,6-dimethylpyrimidin-4-yl)-N4-[2-methoxy-3-(trifluoromethyl)phenyl] pyrimidine-4,6-diamine] | 8.00 to 9.00 | < 6.00 | –
Cc1cc(Nc2cc(Nc3ccc(C4CCNC4)cc3N(C)S(C)(=O)=O)ncn2)nc(C)n1 (stereo not drawn) [Example 110, N-[2-[[6-[(2,6-dimethylpyrimidin-4-yl)amino]pyrimidin-4-yl]amino]-5-pyrrolidin-3-yl-phenyl]-N-methyl-methanesulfonamide] | 8.00 to 9.00 | 6.00 to 7.00 | –
COc1c(Nc2cc(Nc3cc(C)nc(C)n3)ncn2)cccc1-c1ncn(C2CC2(F)F)n1 (stereo not drawn) [Example 55, N6-[3-[1-(2,2-difluorocyclopropyl)-1,2,4-triazol-3-yl]-2-methoxy-phenyl]-N4-(2,6-dimethylpyrimidin-4-yl)pyrimidine-4,6-diamine] | 9.00 to 9.70 | 7.00 to 8.00 | –
COc1c(Nc2cc(Nc3cc(C)nc(C)n3)ncn2)cccc1-c1ncn(CC2CCCCO2)n1 (stereo not drawn) [Example 47, N4-(2,6-dimethylpyrimidin-4-yl)-N6-[2-methoxy-3-[1-(tetrahydropyran-2-ylmethyl)-1,2,4-triazol-3-yl]phenyl]pyrimidine-4,6-diamine] | 9.00 to 9.70 | 7.00 to 8.00 | –
Cc1cc(Nc2cc(Nc3ccc(C4CCCO4)cc3N(C)S(C)(=O)=O)ncn2)nc(C)n1 (stereo not drawn) [Example 114, N-[2-[[6-[(2,6-dimethylpyrimidin-4-yl)amino]pyrimidin-4-yl]amino]-5-tetrahydrofuran-2-yl-phenyl]-N-methyl-methanesulfonamide] | > 9.70 | > 8.00 | –
N4-(2,6-dimethylpyrimidin-4-yl)-N6-[2-ethoxy-3-(1-methyl-1,2,4-triazol-3-yl)phenyl]pyrimidine-4,6-diamine [Example 45] | 9.00 to 9.70 | – | 6.00 to 7.00
Cc1cc(Nc2cc(Nc3ncc(-c4ncc(C)n4C)cc3N(C)S(C)(=O)=O)ncn2)nc(C)n1 [Example 140, N-[5-(1,5-dimethylimidazol-2-yl)-2-[[6-[(2,6-dimethylpyrimidin-4-yl)amino]pyrimidin-4-yl]amino]-3-pyridyl]-N-methyl-methanesulfonamide] | > 9.70 | 7.00 to 8.00 | –
CN=S(C)(=O)c1ccccc1Nc1cc(Nc2cc(C)nc(C)n2)ncn1 (stereo not drawn) [Example 112, N6-(2,6-dimethylpyrimidin-4-yl)-N4-[2-(N,S-dimethylsulfonimidoyl)phenyl]pyrimidine-4,6-diamine] | > 9.70 | 7.00 to 8.00 | –
